The text below walks through data of patent publication US20250197387A1, “BCL-XL DEGRADERS AND USES THEREOF” (Kymera Therapeutics, Inc., priority 2021, published 2025).

The target of this assay is T1, BCL-XL (Homo sapiens, UniProt Q07817).
T1 construct: endogenous in cells; host or cells: MOLT-4
Description: BCL-XL degradation assay, western blot in MOLT-4 cells, 16 h. The class given is cell-based. The note with it: western blot, MOLT-4 cells, 16 h; for Dmax: read-out: Bcl-xL WB in MOLT-4 degradation 16 h: Average Dmax %; for DC50: read-out: Bcl-xL WB in MOLT-4 degradation 16 h: Mean external-Abs DC50. The procedure:
Compounds treatment: compounds were reconstituted in DMSO to make a stock concentration of 10 mM. MOLT-4 cells were maintained in RPMI-1640+10% FBS+1% Penicillin-Streptomycin. Cells were seeded into 6-well plates in 2 mL at the seeding density of 2e6 cells/mL. Compounds were added to the cells to a final concentration ranging 0.02-10 μM. After 16 hr incubation at 37° C., in a CO2 incubator, cells were collected in an Eppendorf tube and centrifuged at 200×g for 5 minutes, the supernatant removed and pellets washed with ice-cold PBS, centrifuged and supernatant removed again. Then. 50 μl of pre-chilled RIPA lysis buffer (Boston BioProducts. BP-115D) with protease and phosphatase inhibitors (Roche Applied Science. #04906837001 and #04693116001) was added into cell pellet to lyze the cells for 20 minutes under 4° C. Cell lysates were spin at 13000 rpm for 10 minutes. Supernatants were collected and protein concentration was measured by BCA assay kit (Solarbio. PC0020-500) following the manufacturer's protocol. Samples' final protein concentration was adjusted to 3.75 μg/uL with the RIPA lysis buffer based on BCA assay results and 4× loading buffer (Invitrogen. NP0007) was added into the samples and samples were heated to 85° C., for 10 min and then let cool at RT. Samples were centrifuged at 13000 rpm for 10 min and then loaded into a 26-well NuPAGER. Novex 4-12% Bis-Tris Midi Gel (Invitrogen. WG1403BOX) and run in NuPAGER MOPS SDS Running Buffer (Invitrogen. NP0001) for 180 minutes at 70 V into a XCell4 SureLock™ Midi-Cell Runner (Invitrogen. WR0100). Gel were transferred using the Invitrogen iBlot gel transfer device (Invitrogen. IB21001) and the nitrocellulose transfer stacks (Invitrogen, IB23001) with Program PO for 9 minutes. The membrane was then blocked with 5% bovin serum albumin for 1 hr at RT, then incubated with primary antibodies diluted in blocking buffer (LI-COR. 927-60001) and shake at 4° C., overnight. The primary antibodies were anti-BCL-xL antibody (CST. 2762:1:1000), anti-beta-actin (CST. 3700; 1:5000) and anti-GAPDH (CST. 97166:1:5000). Membranes were then washed three times with PBST for 15 minutes at RT. Secondary antibodies IR-Dye 680 CW Goat anti Mouse IgG (LI-COR. 926-68070) and IR-Dye 800 CW Goat anti Rabbit IgG (LI-COR. 926-32211) were diluted at a ratio of 1:10000 into PBST and membranes incubated for 1 hour at RT. Membranes were then washed three times with PBST for 15 minutes at RT. The western blot images were obtained using Odyssey Imaging System and quantified using Image Studio Lite Ver 5.2 software.
The letter codes for BCL-XL DC50 include: A (<0.01 μM); B (0.01-0.1 μM); C (>[…]); D (>0.5-1.0 μM); and E (>1.0 μM). The letter codes for Dmax % include A (>75%); B (50 to 75%); C (<50%).
In general terms: Immunoblotting shows a protein as a band on a membrane.

T1 sequence (Q07817 whole entry): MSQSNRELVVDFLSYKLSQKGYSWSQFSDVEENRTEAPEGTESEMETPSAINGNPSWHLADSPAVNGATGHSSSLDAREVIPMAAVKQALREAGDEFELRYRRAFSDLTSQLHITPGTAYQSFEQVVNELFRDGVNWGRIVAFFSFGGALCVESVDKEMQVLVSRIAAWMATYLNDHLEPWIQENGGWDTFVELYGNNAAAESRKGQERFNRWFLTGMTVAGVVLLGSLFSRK

The term Dmax denotes the greatest extent of degradation seen. The DC50 is the concentration giving 50% degradation. Take `Cc1ncsc1-c1ccc(CNC(=O)[C@@H]2C[C@@H](O)CN2C(=O)[C@@H](NC(=O)C2(F)CC2)C(C)(C)C)c(O[C@H]2CC[C@H](N3CCN(CC[C@H](CSc4ccccc4)Nc4ccc(S(=O)(=O)NC(=O)c5ccc(N6CCN(CC7=C(c8ccc(Cl)cc8)CCC(C)(C)C7)CC6)cc5)cc4S(=O)(=O)C(F)(F)F)CC3)CC2)c1` (single isomer, unassigned) [I-114]: the maximal degradation (Dmax) was less than 50% and the DC50 is greater than 1000 nM.
The corresponding values for `Cc1cc(N(CCN(C)C(=O)CCCCCOc2cc(-c3scnc3C)ccc2CNC(=O)[C@@H]2C[C@@H](O)CN2C(=O)[C@@H](NC(=O)C2(F)CC2)C(C)(C)C)c2ccc(-c3cnn(CC4CCCCC4)c3C)c(C(=O)O)n2)nnc1Nc1nc2ccccc2s1` [I-103] are less than 50% and greater than 1000 nM.
The corresponding values for `Cc1ncsc1-c1ccc([C@H](C)NC(=O)[C@@H]2C[C@@H](O)CN2C(=O)[C@@H](NC(=O)CCCCCS(=O)(=O)NC(=O)c2cccc(N3CCc4cccc(C(=O)Nc5nc6ccccc6s5)c4C3)n2)C(C)(C)C)cc1` [I-119] are less than 50% and greater than 1000 nM.
Taken in the same sequence, the figures for `Cc1ncsc1-c1ccc(CNC(=O)[C@@H]2C[C@@H](O)CN2C(=O)[C@@H](NC(=O)C2(F)CC2)C(C)(C)C)c(O[C@H]2CC[C@@H](N3CCN(CC[C@H](CSc4ccccc4)Nc4ccc(S(=O)(=O)NC(=O)c5ccc(N6CCN(CC7=C(c8ccc(Cl)cc8)CCC(C)(C)C7)CC6)cc5)cc4S(=O)(=O)C(F)(F)F)CC3)CC2)c1` (single isomer, unassigned) [I-115] were less than 50% and greater than 1000 nM.
With `CC1(C)CCC(c2ccc(Cl)cc2)=C(CN2CCN(c3ccc(C(=O)NS(=O)(=O)c4ccc(N[C@H](CCN5CCN(C(=O)COc6ccccc6CNC(=O)[C@@H]6C[C@@H](O)CN6C(=O)[C@@H](NC(=O)C6(F)CC6)C(C)(C)C)CC5)CSc5ccccc5)c(S(=O)(=O)C(F)(F)F)c4)cc3)CC2)C1` [I-97], the Dmax is less than 50% and the DC50 was greater than 1000 nM.
Taken in the same sequence, the figures for `C#Cc1ccc(CNC(=O)[C@@H]2C[C@@H](O)CN2C(=O)[C@@H](NC(=O)C2(F)CC2)C(C)(C)C)c(OCC(=O)N2CCN(CC[C@H](CSc3ccccc3)Nc3ccc(S(=O)(=O)NC(=O)c4ccc(N5CCN(CC6=C(c7ccc(Cl)cc7)CCC(C)(C)C6)CC5)cc4)cc3S(=O)(=O)C(F)(F)F)CC2)c1` [I-92] were greater than 75% and 100 to 500 nM.
Taken in the same sequence, the figures for `Cc1ncsc1-c1ccc([C@H](C)NC(=O)[C@@H]2C[C@@H](O)CN2C(=O)[C@@H](NC(=O)CCCCCC(=O)N(C)CCCc2cccc(F)c2OCCCc2sc(N3CCc4cccc(C(=O)Nc5nc6ccccc6s5)c4C3)nc2C(=O)O)C(C)(C)C)cc1` [I-10] were greater than 75% and 100 to 500 nM.
The corresponding values for `Cc1ncsc1-c1ccc([C@H](C)NC(=O)[C@@H]2C[C@@H](O)CN2C(=O)[C@@H](NC(=O)CCCN(C)C(=O)CCCCCc2ccc(N3CCc4cccc(C(=O)Nc5nc6ccccc6s5)c4C3)nc2C(=O)O)C(C)(C)C)cc1` [I-36, 6-(8-(benzo[d]thiazol-2-ylcarbamoyl)-3,4-dihydroisoquinolin-2 (1H)-yl)-3-(6-((4-(((S)-1-((2S,4R)-4-hydroxy-2-(((S)-1-(4-(4-methylthiazol-5-yl)phenyl)ethyl)carbamoyl)pyrrolidin-1-yl)-3,3-dimethyl-1-oxobutan-2-yl)amino)-4-oxobutyl)(methyl)amino)-6-oxohexyl)picolinic acid] are less than 50% and greater than 1000 nM.
Take `Cc1ncsc1-c1ccc([C@H](C)NC(=O)[C@@H]2C[C@@H](O)CN2C(=O)[C@@H](NC(=O)CCc2ccc(N3CCc4cccc(C(=O)Nc5nc6ccccc6s5)c4C3)nc2C(=O)O)C(C)(C)C)cc1` [I-40]: the Dmax is less than 50% and the 50% degradation concentration (DC50) is greater than 1000 nM.
Taken in the same sequence, the figures for `Cc1ncsc1-c1ccc([C@H](C)NC(=O)[C@@H]2C[C@@H](O)CN2C(=O)[C@@H](NC(=O)CCCCCCCS(=O)(=O)NC(=O)c2ccc(N3CCN(CC4=C(c5ccc(Cl)cc5)CCC(C)(C)C4)CC3)cc2)C(C)(C)C)cc1` [I-107] were 50 to 75% and greater than 1000 nM.
The corresponding values for `Cc1ncsc1-c1ccc(CNC(=O)[C@@H]2C[C@@H](O)CN2C(=O)[C@@H](NC(=O)C2(F)CC2)C(C)(C)C)c(OCCCCCCCC(=O)N(C)CC#Cc2cccc(F)c2OCCCc2sc(N3CCc4cccc(C(=O)Nc5nc6ccccc6s5)c4C3)nc2C(=O)O)c1` [I-20] are greater than 75% and 100 to 500 nM.
The corresponding values for `Cc1ncsc1-c1ccc([C@H](C)NC(=O)[C@@H]2C[C@@H](O)CN2C(=O)[C@@H](NC(=O)CCCCCC(=O)N2CCN(CC#Cc3ccc(OCCCc4sc(N5CCc6cccc(C(=O)Nc7nc8ccccc8s7)c6C5)nc4C(=O)O)cc3)CC2)C(C)(C)C)cc1` [I-93] are 50 to 75% and greater than 1000 nM.
Consider `Cc1cc(N(CCN(C)C(=O)CCCCCCCCC(=O)N[C@H](C(=O)N2C[C@H](O)C[C@H]2C(=O)N[C@@H](C)c2ccc(-c3scnc3C)cc2)C(C)(C)C)c2ccc(-c3cnn(CC4CCCCC4)c3C)c(C(=O)O)n2)nnc1Nc1nc2ccccc2s1` [I-101], for which the Dmax was less than 50% and the DC50 was greater than 1000 nM.
As for `Cc1ncsc1-c1ccc(CNC(=O)[C@@H]2C[C@@H](O)CN2C(=O)[C@@H](NC(=O)C2(F)CC2)C(C)(C)C)c(OCCCC(=O)N(C)CC#Cc2cccc(F)c2OCCCc2sc(N3CCc4cccc(C(=O)Nc5nc6ccccc6s5)c4C3)nc2C(=O)O)c1` [I-18], the Dmax was 50 to 75% and the DC50 was greater than 1000 nM.
The corresponding values for `Cc1ncsc1-c1ccc([C@H](C)NC(=O)[C@@H]2C[C@@H](O)CN2C(=O)[C@@H](NC(=O)CCCCCS(=O)(=O)NC(=O)c2ccc(N3CCN(CC4=C(c5ccc(Cl)cc5)CCC(C)(C)C4)CC3)cc2)C(C)(C)C)cc1` [I-106] are less than 50% and greater than 1000 nM.
The corresponding values for `Cc1ncsc1-c1ccc(CNC(=O)[C@@H]2C[C@@H](O)CN2C(=O)[C@@H](NC(=O)C2(F)CC2)C(C)(C)C)c(O[C@H]2C[C@H](C(=O)N3CCN(CC[C@H](CSc4ccccc4)Nc4ccc(S(=O)(=O)NC(=O)c5ccc(N6CCN(CC7=C(c8ccc(Cl)cc8)CCC(C)(C)C7)CC6)cc5)cc4S(=O)(=O)C(F)(F)F)CC3)C2)c1` [I-91] are less than 50% and greater than 1000 nM.
Taken in the same sequence, the figures for `Cc1ncsc1-c1ccc(CNC(=O)[C@@H]2C[C@@H](O)CN2C(=O)[C@@H](NC(=O)C2(F)CC2)C(C)(C)C)c(O[C@H]2CC[C@@H](C(=O)N3CCN(CC[C@H](CSc4ccccc4)Nc4ccc(S(=O)(=O)NC(=O)c5ccc(N6CCN(CC7=C(c8ccc(Cl)cc8)CCC(C)(C)C7)CC6)cc5)cc4S(=O)(=O)C(F)(F)F)CC3)CC2)c1` [I-90] were less than 50% and greater than 1000 nM.
For the molecule `Cc1ncsc1-c1ccc(CNC(=O)[C@@H]2C[C@@H](O)CN2C(=O)[C@@H](NC(=O)CCOCCOCCOCC#Cc2ccc(OCCCc3sc(N4CCc5cccc(C(=O)Nc6nc7ccccc7s6)c5C4)nc3C(=O)O)cc2)C(C)(C)C)cc1` [I-385], the Dmax was greater than 75% and the DC50 lay within 10 to 100 nM.
Regarding `Cc1ncsc1-c1ccc(CNC(=O)[C@@H]2C[C@@H](O)CN2C(=O)[C@@H](NC(=O)C2(F)CC2)C(C)(C)C)c(OCCCCCC(=O)N(C)CCCc2cccc(F)c2OCCCc2sc(N3CCc4cccc(C(=O)Nc5nc6ccccc6s5)c4C3)nc2C(=O)O)c1` [I-13], the Dmax was greater than 75% and the half-maximal degradation concentration (DC50) is 100 to 500 nM.
On to `Cc1ncsc1-c1ccc([C@H](C)NC(=O)[C@@H]2C[C@@H](O)CN2C(=O)[C@@H](NC(=O)CCCCCC(=O)N2CCN(CC[C@@H](CSc3ccccc3)Nc3ccc(S(=O)(=O)NC(=O)c4ccc(N5CCC(C)(C)CC5)cc4)cc3S(=O)(=O)C(F)(F)F)CC2)C(C)(C)C)cc1` [I-393], for which the Dmax was less than 50% and the DC50 was greater than 1000 nM.
As for `Cc1cc(N(CCN(C)C(=O)CCCOc2cc(-c3scnc3C)ccc2CNC(=O)[C@@H]2C[C@@H](O)CN2C(=O)[C@@H](NC(=O)C2(F)CC2)C(C)(C)C)c2ccc(-c3cnn(CC4CCCCC4)c3C)c(C(=O)O)n2)nnc1Nc1nc2ccccc2s1` [I-102], the maximal degradation (Dmax) lay in the range of 50 to 75% and the 50% degradation concentration (DC50) is greater than 1000 nM.
